What is called IC50 is the midpoint of a concentration-inhibition curve.

For this test, the target named is Pin1 (Homo sapiens, UniProt Q13526). Put plainly: protease-coupled PPIase assay (pNA release at […] nm, […]°C). The format is biochemical.
Pin1, sequence (Q13526 whole entry): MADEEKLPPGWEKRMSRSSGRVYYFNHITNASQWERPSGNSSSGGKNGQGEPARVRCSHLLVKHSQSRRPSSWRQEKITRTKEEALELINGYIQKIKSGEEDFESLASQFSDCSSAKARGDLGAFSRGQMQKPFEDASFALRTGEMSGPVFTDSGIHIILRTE
As for `CC(=O)N[C@H](/C=C1/CCCC[C@@H]1C(=O)NCCc1ccc2ccccc2c1)COP(=O)(O)O` [(2R,5S)-1, Ac–L-pSer–Ψ[(Z)CH = C]-D-Pip–NEA], it took 52 ± 4 µM to reach half-maximal inhibition (IC50).
With `CC(=O)N[C@@H](/C=C1/CCCC[C@H]1C(=O)NCCc1ccc2ccccc2c1)COP(=O)(O)O` [(2S,5R)-1, Ac–D-pSer–Ψ[(Z)CH = C]–L-Pip–2-(2-naphthyl)ethylamine (NEA)] the figure was 85 ± 10 µM.
The value for `CC(=O)N[C@@H](/C=C1/CCCC[C@@H]1C(=O)NCCc1ccc2ccccc2c1)COP(=O)(O)O` [(2S,5S)-1, (2S,5S)-Ac–pSer–Ψ[(Z)CH = C]–pipecolyl(Pip)–2-(2-naphthyl)ethylamine 1] was 140 ± 20 µM.
